A value given as a limit tells only on which side of the number the result lay.

T1 sequence (Q5S007 whole entry, the tested form may be a part): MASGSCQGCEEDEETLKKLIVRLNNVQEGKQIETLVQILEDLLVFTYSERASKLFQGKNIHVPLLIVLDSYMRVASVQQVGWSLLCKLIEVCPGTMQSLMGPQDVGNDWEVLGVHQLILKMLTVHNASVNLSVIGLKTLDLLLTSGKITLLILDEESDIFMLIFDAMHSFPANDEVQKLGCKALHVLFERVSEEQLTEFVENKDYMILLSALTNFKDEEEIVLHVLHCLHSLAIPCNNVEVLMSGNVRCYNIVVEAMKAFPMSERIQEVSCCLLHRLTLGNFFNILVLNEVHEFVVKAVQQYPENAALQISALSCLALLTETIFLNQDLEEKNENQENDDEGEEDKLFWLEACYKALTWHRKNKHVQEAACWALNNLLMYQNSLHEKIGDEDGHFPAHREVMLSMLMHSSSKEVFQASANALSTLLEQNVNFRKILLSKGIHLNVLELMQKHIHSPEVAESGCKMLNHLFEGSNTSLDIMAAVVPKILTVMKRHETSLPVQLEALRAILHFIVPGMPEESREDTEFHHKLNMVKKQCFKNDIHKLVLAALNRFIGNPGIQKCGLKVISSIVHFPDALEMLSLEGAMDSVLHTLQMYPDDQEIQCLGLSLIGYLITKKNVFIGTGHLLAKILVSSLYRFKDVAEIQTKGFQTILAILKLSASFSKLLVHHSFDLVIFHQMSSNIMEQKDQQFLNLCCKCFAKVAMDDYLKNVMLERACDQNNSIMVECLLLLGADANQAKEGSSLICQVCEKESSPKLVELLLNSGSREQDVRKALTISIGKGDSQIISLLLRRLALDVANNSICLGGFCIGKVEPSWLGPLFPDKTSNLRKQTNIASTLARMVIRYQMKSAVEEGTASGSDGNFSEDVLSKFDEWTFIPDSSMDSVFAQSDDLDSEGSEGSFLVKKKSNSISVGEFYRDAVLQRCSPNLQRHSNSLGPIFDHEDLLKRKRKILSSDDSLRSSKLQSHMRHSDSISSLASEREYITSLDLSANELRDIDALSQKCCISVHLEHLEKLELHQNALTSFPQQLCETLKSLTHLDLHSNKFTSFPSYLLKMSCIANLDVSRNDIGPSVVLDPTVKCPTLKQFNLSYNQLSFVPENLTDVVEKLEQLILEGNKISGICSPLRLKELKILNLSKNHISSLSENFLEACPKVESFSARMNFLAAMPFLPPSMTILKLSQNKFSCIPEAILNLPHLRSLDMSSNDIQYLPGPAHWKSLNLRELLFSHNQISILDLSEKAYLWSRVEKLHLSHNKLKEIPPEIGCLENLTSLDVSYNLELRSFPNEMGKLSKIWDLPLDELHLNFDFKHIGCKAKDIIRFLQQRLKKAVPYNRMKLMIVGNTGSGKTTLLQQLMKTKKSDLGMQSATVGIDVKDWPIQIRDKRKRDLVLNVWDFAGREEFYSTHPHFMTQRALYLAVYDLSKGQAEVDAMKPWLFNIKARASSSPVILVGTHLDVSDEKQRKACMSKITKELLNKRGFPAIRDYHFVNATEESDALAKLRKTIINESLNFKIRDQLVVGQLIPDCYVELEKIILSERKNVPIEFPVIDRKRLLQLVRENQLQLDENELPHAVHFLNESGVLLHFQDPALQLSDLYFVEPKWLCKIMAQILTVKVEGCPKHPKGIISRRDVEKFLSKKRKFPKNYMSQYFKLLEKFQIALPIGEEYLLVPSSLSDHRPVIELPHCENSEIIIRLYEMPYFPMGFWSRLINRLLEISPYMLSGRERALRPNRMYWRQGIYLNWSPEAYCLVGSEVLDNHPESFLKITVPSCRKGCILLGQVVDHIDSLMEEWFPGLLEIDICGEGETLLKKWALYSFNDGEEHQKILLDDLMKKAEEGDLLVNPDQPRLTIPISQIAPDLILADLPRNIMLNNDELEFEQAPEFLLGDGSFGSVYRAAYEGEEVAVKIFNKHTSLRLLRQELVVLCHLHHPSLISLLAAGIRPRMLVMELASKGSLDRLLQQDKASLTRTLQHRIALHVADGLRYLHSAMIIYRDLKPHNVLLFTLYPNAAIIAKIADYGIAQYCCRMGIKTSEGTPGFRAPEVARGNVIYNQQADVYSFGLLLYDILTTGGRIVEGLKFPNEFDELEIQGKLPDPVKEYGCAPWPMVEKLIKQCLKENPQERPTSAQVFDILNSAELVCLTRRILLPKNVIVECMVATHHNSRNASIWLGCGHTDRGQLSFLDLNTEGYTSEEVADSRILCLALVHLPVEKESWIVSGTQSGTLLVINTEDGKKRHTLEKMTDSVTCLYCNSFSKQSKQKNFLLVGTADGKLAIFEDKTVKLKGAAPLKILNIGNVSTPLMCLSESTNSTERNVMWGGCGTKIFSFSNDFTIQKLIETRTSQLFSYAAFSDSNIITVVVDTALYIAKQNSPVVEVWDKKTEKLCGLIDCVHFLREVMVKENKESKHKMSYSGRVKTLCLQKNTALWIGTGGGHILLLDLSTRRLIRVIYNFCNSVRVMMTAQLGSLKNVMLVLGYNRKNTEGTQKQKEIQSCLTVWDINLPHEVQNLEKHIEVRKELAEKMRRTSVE

The first assay concerns the target T1, LRRK2^KW (Homo sapiens, UniProt Q5S007).
T1 construct: Kinase and WD40 domain construct (KW)
Assay: not given
The arrangement: Differential scanning fluorometry, thermal stabilization of LRRK2 KW by compound. The note with it: binder. The text has this: Next, we evaluated the potency and selectivity of these new compounds. We performed on-target screening by measuring the thermostability increase of LRRK2^KW in the presence of the new compounds using DSF (Supporting Information Table S2). We also determined the in vitro IC50 (median inhibitory concentration) values for each of the new compounds by purifying LRRK2^RCKW and measuring its kinase activity in the presence of our new inhibitors using the PhosphoSense® activity assay from AssayQuant (Supporting Information Table S2). Finally, we estimated the kinome selectivity of each compound by measuring the thermostability increase of approximately 100 representative kinases in the presence of the compounds via DSF (Supporting Information Table S2). […] Additionally, we screened a library of published type-II inhibitors to identify those that bind to LRRK2^KW (a Kinase and WD40 domain construct of LRRK2) with high affinity.
Regarding `Cc1ccc(-n2nc(C(C)(C)C)cc2NC(=O)Nc2cccc(-c3c[nH]c4nc(Cl)nc(N5CCOCC5)c34)c2)cc1` [compound 30, RN277], the “ΔTm [K]” value is 18.0 K.

Regarding `CCSc1nc(NC)c2c(-c3cccc(NC(=O)Nc4cc(C(C)(C)C)nn4-c4ccc(C)cc4)c3)c[nH]c2n1` [compound 32, RN341], the “ΔTm [K]” value was found to be 19.9 K.

Turning to `COc1cc(C(=O)N2CCOCC2)c(F)cc1Nc1nc(N(C)C)c2c(Cl)c[nH]c2n1` [compound 33], the “ΔTm [K]” value is recorded as 16.0 K.

Consider `COc1cc(S(C)(=O)=O)ccc1Nc1nc(N(C)C)c2c(-c3cccc(NC(=O)Nc4cc(C(C)(C)C)nn4-c4ccc(C)cc4)c3)c[nH]c2n1` [compound 35, 1-(3-(tert-butyl)-1-(p-tolyl)-1H-pyrazol-5-yl)-3-(3-(4-(dimethylamino)-2-((2-methoxy-4-(methylsulfonyl)phenyl)amino)-7H-pyrrolo[2,3-d]pyrimidin-5-yl)phenyl)urea], for which the “ΔTm [K]” value is recorded as 1.0 K.

Take `COc1cc(C(=O)N2CCOCC2)c(F)cc1Nc1nc(N(C)C)c2c(-c3cccc(NC(=O)Nc4cc(C(C)(C)C)nn4-c4ccc(C)cc4)c3)c[nH]c2n1` [compound 36, 1-(3-(tert-butyl)-1-(p-tolyl)-1H-pyrazol-5-yl)-3-(3-(4-(dimethylamino)-2-((5-fluoro-2-methoxy-4-(morpholine-4-carbonyl)phenyl)amino)-7H-pyrrolo[2,3-d]pyrimidin-5-yl)phenyl)urea]: the “ΔTm [K]” value turned out to be 0.0 K.

Another assay addresses T1, LRRK2^KW.
Assay: not given
More on the design: DSF thermal shift of purified LRRK2 KW construct with compound. The settings on record: binder. The source holds these as a separate data set. The text has this:
Additionally, we screened a library of published type-II inhibitors to identify those that bind to LRRK2^KW (a Kinase and WD40 domain construct of LRRK2) with high affinity. […] Next, we evaluated the potency and selectivity of these new compounds. We performed on-target screening by measuring the thermostability increase of LRRK2^KW in the presence of the new compounds using DSF (Supporting Information Table S2). We also determined the in vitro IC50 (median inhibitory concentration) values for each of the new compounds by purifying LRRK2^RCKW and measuring its kinase activity in the presence of our new inhibitors using the PhosphoSense® activity assay from AssayQuant (Supporting Information Table S2). Finally, we estimated the kinome selectivity of each compound by measuring the thermostability increase of approximately 100 representative kinases in the presence of the compounds via DSF (Supporting Information Table S2).
As for `CCN1CCN(Cc2ccc(NC(=O)c3ccc(C)c(NC(=O)c4cncc(-c5cccs5)c4)c3)cc2C(F)(F)F)CC1` [ALW-II-41-27], the “dTm LRRK2(KW)” value is -0.5 K.

As for `Cc1ccc(NC(=O)c2cccc(C(C)(C)C#N)c2)cc1Nc1ccc2ncn(C)c(=O)c2c1` [AZ 628], the “dTm LRRK2(KW)” value was -0.5 K.

Take `N#CC1(c2ccc(NC(=O)c3cccnc3NCc3ccncc3)cc2)CCCC1` [Apatinib]: the “dTm LRRK2(KW)” value is reported as -1 K.

Take `COc1cc(Oc2ccnc3cc(OC)c(OC)cc23)ccc1NC(=O)NC(C)c1nccs1` (stereo not drawn) [KI20227]: the “dTm LRRK2(KW)” value is reported as 3 K.

Consider `CC1(C)CNc2cc(NC(=O)c3cccnc3NCc3ccncc3)ccc21` [Motesanib], for which the “dTm LRRK2(KW)” value was -0.5 K.

As to `Cc1ccc(C(=O)Nc2cccc(C(F)(F)F)c2)cc1Nc1nc(-c2cccnc2)nc2c1cnn2C` [NVP-BHG712], the “dTm LRRK2(KW)” value is listed as -0.5 K.

Consider `Cc1cn(-c2cc(NC(=O)c3ccc(C)c(Nc4nccc(-c5cccnc5)n4)c3)cc(C(F)(F)F)c2)cn1` [Nilotinib], for which the “dTm LRRK2(KW)” value was -2.5 K.

In the case of `Cc1ccc(-n2nc(C(C)(C)C)cc2NC(=O)Nc2cc(COc3cccnc3)[nH]n2)cc1` [PF-4618433], the “dTm LRRK2(KW)” value came out at 11 K.

Take `CNC(=O)c1cc(Oc2ccc(NC(=O)Nc3ccc(Cl)c(C(F)(F)F)c3)c(F)c2)ccn1` [Regorafinib]: the “dTm LRRK2(KW)” value stood at 5.5 K.

Consider `Cc1ccc(NC(=O)c2cccc(N(C)C)c2)cc1NC(=O)c1ccc(O)cc1` [ZM336372], for which the “dTm LRRK2(KW)” value is listed as -1 K.

In the case of `COc1cc2c(Nc3ccc(NC(=O)c4ccccc4)cc3)ncnc2cc1OCCCN1CCOCC1` [ZM447439], the “dTm LRRK2(KW)” value is listed as 6.5 K.

As to `NC(=O)C1(C(=O)N(c2ccc(F)cc2)c2ccc(Oc3ccc4n[nH]cc4c3)cc2)CC1` [compound 48, N-(4-((2H-indazol-5-yl)oxy)phenyl)-N-(4-fluorophenyl)cyclopropane-1,1-dicarboxamide], the “∆Tm [K]” value is 1.0 K.

For the compound `NC(=O)C1(C(=O)N(c2ccc(F)cc2)c2ccc(Nc3ccc4n[nH]cc4c3)cc2)CC1` [compound 49, N-(4-((2H-indazol-5-yl)amino)phenyl)-N-(4-fluorophenyl)cyclopropane-1,1-dicarboxamide], the “∆Tm [K]” value was 2.0 K.

With `Cc1cn(-c2cc(NC(=O)c3ccc(C)c(Nc4ccc5n[nH]cc5c4)c3)cc(C(F)(F)F)c2)cn1` [compound 50, 3-((2H-indazol-5-yl)amino)-4-methyl-N-(3-(4-methyl-1H-imidazol-1-yl)-5-(trifluoromethyl)phenyl)benzamide], the “∆Tm [K]” value turned out to be 1.5 K.

Regarding `NC(=O)C1(C(=O)N(c2ccc(F)cc2)c2ccc3cn[nH]c3c2)CC1` [compound 51, N-(4-fluorophenyl)-N-(1H-indazol-6-yl)cyclopropane-1,1-dicarboxamide], the “∆Tm [K]” value is given as 1.0 K.

The target of another assay is T2, leucine-rich repeat kinase 2 (LRRK2) (Homo sapiens, UniProt Q5S007).
T2 construct: LRRK2^RCKW (ROC, COR, Kinase, WD40)
T2 sequence (Q5S007 1327-2527 limits assumed): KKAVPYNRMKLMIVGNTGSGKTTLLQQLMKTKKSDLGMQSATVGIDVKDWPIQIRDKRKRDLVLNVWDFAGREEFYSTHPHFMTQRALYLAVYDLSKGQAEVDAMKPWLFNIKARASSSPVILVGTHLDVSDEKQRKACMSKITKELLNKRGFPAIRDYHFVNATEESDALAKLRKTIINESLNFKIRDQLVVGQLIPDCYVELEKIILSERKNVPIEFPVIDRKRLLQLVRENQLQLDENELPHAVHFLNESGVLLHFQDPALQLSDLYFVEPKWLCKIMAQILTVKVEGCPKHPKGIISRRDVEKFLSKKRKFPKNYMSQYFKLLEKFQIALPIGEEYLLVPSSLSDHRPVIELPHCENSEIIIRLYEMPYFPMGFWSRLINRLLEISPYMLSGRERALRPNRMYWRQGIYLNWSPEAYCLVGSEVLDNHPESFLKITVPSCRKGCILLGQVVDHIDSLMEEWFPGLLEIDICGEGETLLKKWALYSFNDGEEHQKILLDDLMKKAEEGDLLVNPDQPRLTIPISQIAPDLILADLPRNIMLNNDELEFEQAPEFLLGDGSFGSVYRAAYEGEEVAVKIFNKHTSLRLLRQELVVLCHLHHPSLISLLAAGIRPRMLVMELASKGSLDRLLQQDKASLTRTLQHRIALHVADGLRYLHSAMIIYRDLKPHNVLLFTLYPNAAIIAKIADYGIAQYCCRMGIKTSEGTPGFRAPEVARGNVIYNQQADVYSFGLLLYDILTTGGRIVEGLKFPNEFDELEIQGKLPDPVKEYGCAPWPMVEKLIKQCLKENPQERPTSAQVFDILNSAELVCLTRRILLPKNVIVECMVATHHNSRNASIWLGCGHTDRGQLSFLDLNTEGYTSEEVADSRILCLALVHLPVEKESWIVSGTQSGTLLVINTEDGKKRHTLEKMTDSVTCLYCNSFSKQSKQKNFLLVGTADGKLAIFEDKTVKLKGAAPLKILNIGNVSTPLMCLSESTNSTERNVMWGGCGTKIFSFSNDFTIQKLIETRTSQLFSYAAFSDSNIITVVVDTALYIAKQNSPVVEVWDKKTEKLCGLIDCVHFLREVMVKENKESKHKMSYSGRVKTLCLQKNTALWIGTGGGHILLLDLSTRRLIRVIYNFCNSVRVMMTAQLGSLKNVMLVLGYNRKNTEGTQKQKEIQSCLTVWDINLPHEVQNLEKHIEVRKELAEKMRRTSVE
Briefly: biochemical.
Conditions: not given
The arrangement: PhosphoSense (AssayQuant) kinase activity assay with purified LRRK2 RCKW. From the text:
Next, we evaluated the potency and selectivity of these new compounds. We performed on-target screening by measuring the thermostability increase of LRRK2^KW in the presence of the new compounds using DSF (Supporting Information Table S2). We also determined the in vitro IC50 (median inhibitory concentration) values for each of the new compounds by purifying LRRK2^RCKW and measuring its kinase activity in the presence of our new inhibitors using the PhosphoSense® activity assay from AssayQuant (Supporting Information Table S2). Finally, we estimated the kinome selectivity of each compound by measuring the thermostability increase of approximately 100 representative kinases in the presence of the compounds via DSF (Supporting Information Table S2).
Consider `NC(=O)C1(C(=O)N(c2ccc(F)cc2)c2cccc(-c3c[nH]c4ncnc(N5CCOCC5)c34)c2)CC1` [compound 2, N-(4-fluorophenyl)-N-(3-(4-morpholino-7H-pyrrolo[2,3-d]pyrimidin-5-yl)phenyl)cyclopropane-1,1-dicarboxamide], for which the IC50 (as a rule, the concentration that gives 50% inhibition) worked out at 0.185 ± 0.01 µM.

Take `NC(=O)C1(C(=O)N(c2ccc(F)cc2)c2cccc(-c3c[nH]c4ncnc(N5CCOCC5)c34)c2)CCCC1` [compound 3, N-(4-fluorophenyl)-N-(3-(4-morpholino-7H-pyrrolo[2,3-d]pyrimidin-5-yl)phenyl)cyclopentane-1,1-dicarboxamide]: the IC50 is 0.694 ± 0.001 µM.

In the case of `Cc1ccc(N(C(=O)C2(C(N)=O)CC2)c2ccc(F)cc2)cc1-c1c[nH]c2ncnc(N3CCOCC3)c12` [compound 5, N-(4-fluorophenyl)-N-(4-methyl-3-(4-morpholino-7H-pyrrolo[2,3-d]pyrimidin-5-yl)phenyl)cyclopropane-1,1-dicarboxamide], the IC50 turned out to be 9.58 ± 0.565 µM.

For the compound `Cc1cc(-c2c[nH]c3ncnc(N4CCOCC4)c23)cc(N(C(=O)C2(C(N)=O)CC2)c2ccc(F)cc2)c1` [compound 6, N-(4-fluorophenyl)-N-(3-methyl-5-(4-morpholino-7H-pyrrolo[2,3-d]pyrimidin-5-yl)phenyl)cyclopropane-1,1-dicarboxamide], the IC50 was determined as 2.15 ± 0.076 µM.

With `Cc1ccc(-c2c[nH]c3ncnc(N4CCOCC4)c23)cc1N(C(=O)C1(C(N)=O)CC1)c1ccc(F)cc1` [compound 7, N-(4-fluorophenyl)-N-(2-methyl-5-(4-morpholino-7H-pyrrolo[2,3-d]pyrimidin-5-yl)phenyl)cyclopropane-1,1-dicarboxamide], the IC50 came out at 10.5 ± 1.02 µM.

`Cn1cc(N(C(=O)C2(C(N)=O)CC2)c2cccc(-c3c[nH]c4ncnc(N5CCOCC5)c34)c2)cn1` [compound 9, N-(1-methyl-1H-pyrazol-4-yl)-N-(3-(4-morpholino-7H-pyrrolo[2,3-d]pyrimidin-5-yl)phenyl)cyclopropane-1,1-dicarboxamide] showed an IC50 of 2.11 ± 1.19 µM.

Still in this assay, the particulars now being: read-out: IC50 (cells in μM).
Take `NC(=O)C1(C(=O)N(c2ccc(F)cc2)c2ccc(Oc3ccc4n[nH]cc4c3)cc2)CC1` [compound 48, N-(4-((2H-indazol-5-yl)oxy)phenyl)-N-(4-fluorophenyl)cyclopropane-1,1-dicarboxamide]: the IC50 is more than 15 µM.

As to `NC(=O)C1(C(=O)N(c2ccc(F)cc2)c2ccc(Nc3ccc4n[nH]cc4c3)cc2)CC1` [compound 49, N-(4-((2H-indazol-5-yl)amino)phenyl)-N-(4-fluorophenyl)cyclopropane-1,1-dicarboxamide], the IC50 is more than 15 µM.

Regarding `Cc1cn(-c2cc(NC(=O)c3ccc(C)c(Nc4ccc5n[nH]cc5c4)c3)cc(C(F)(F)F)c2)cn1` [compound 50, 3-((2H-indazol-5-yl)amino)-4-methyl-N-(3-(4-methyl-1H-imidazol-1-yl)-5-(trifluoromethyl)phenyl)benzamide], the 50% inhibitory concentration (IC50) was more than 15 µM.

Turning to `NC(=O)C1(C(=O)N(c2ccc(F)cc2)c2ccc3cn[nH]c3c2)CC1` [compound 51, N-(4-fluorophenyl)-N-(1H-indazol-6-yl)cyclopropane-1,1-dicarboxamide], the IC50 is more than 15 µM.

For the origin of these results see publication doi:10.1101/2024.09.17.613365, “Type-II kinase inhibitors that target Parkinson’s Disease-associated LRRK2” (bioRxiv, 2025).
